From PMC11363324 (ACS Central Science, 2024)

Tests used:
C57BL/6J mice [1] = assay: animal or person; format: in vivo; conditions: Mus musculus, sc, read-out: antinociception ED50 (and 95% CI)
C57BL/6J mice [2] = conditions: mouse, in vivo

CN1CC[C@]23c4c5ccc(O)c4O[C@H]2[C@@H](O)C=C[C@H]3[C@H]1C5 [Morphine]
ED50 (C57BL/6J mice [1]): 4 mg/kg | withdrawal: jumping frequency vs saline (C57BL/6J mice [2]; C57BL/6J): ****p < 0.0001 | withdrawal: teeth chattering frequency vs saline (C57BL/6J mice [2]; C57BL/6J): ***p = 0.0003 | withdrawal: forepaw licking frequency vs saline (C57BL/6J mice [2]): significant | withdrawal: rearing frequency vs saline (C57BL/6J mice [2]): significant
